Source: patent US20250205199A1, “5-METHOXY-N,N-[…][…] THE TREATMENT OF SOCIAL/EMOTIONAL […] DETACHMENT” (GH RESEARCH IRELAND LIMITED, priority 2022, published 2025)

Experiments:
[1] = test system: patients with treatment-resistant major depressive disorder (TRD); assay: Phase 1/2 clinical trial of inhaled 5-MeO-DMT in patients with TRD
Protocol: Patients were assigned to different groups. In the context of the present invention, the group who received a single, 12 mg dose and the group who underwent an intra-day individualized dosing regimen (IDR) that allowed for multiple, escalating doses (6 mg, 12 mg and 18 mg) within a single day, driven by the intensity of the patient-reported psychedelic experience are of interest.
The data gathered include the assessment of the treated patients against several scales including the Montgomery-Åsberg Depression Rating Scale (MADRS) and the Brief Psychiatric Rating Scale (BPRS).
This trial was designed in two parts. Part A was an open-label, single-arm, single-dose Phase 1 trial with two dose levels (12 mg (n=4) and 18 mg (n=4)). […] The primary endpoint of Part B was to assess the effects on the severity of depression, as assessed by the proportion of patients in remission on day seven after dosing, defined as a MADRS total score of less than or equal to 10.

[2] = test system: patients with postpartum depression (PPD); assay: Clinical trial of inhaled 5-MeO-DMT in postpartum depression (one patient so far)
Protocol: The single-arm, open-label clinical trial will involve 15 adult female patients with clinically diagnosed postpartum depression (PPD).
The second dose (12 mg) will only be administered if: • a. […] The 6 mg dose was safe and well-tolerated according to the investigator, • c. Any psychoactive effects (PsE) of the prior dose have subsided, and • d. Pre-dose vital parameters and forced expiratory volume in one second (FEV1) are in normal range, or if outside of the normal range, are not clinically significant according to the investigator. • 3. Similarly, a third dose (18 mg) will only be administered if: • a. […] The 12 mg dose was safe and well-tolerated according to the investigator, and • c. Any PsE of the prior dose have subsided, and • d. Pre-dose vital parameters and forced expiratory volume in one second (FEV1) are in normal range, or if outside of the normal range, are not clinically significant according to the investigator.
The patients will be assessed for a peak psychedelic experience (based on a patient-scored visual analogue scale, the PE scale), sedation, and other endpoints after dosing. Follow-up visits are planned for Day 1, and Day 7 after the dosing day.
The following criteria must be met by all patients considered for clinical trial participation: • 1. Is female and in the age range between 18 and 45 years (inclusive) at screening. • 2. Has a body mass index (BMI) in the range of 18.5 and 35 kg/m^2 (inclusive) at screening. • 3. Meets the trial criteria for PPD as assessed by a trial psychiatrist or registered psychologist: • a. Diagnosis of Major Depressive Disorder without psychotic features, confirmed by the Mini-International Neuropsychiatric Interview (MINI), with peri-partum onset that began no earlier than gestation and no later than the first 4 weeks postpartum. • b. Has a Montgomery-Åsberg Depression Rating Scale (MADRS) total score of equal to or greater than 28 at screening and pre-dose on Day 0. • 6. […] Patients must have a negative pregnancy test at screening and on the pre-test day (Day −1). • 5. Is willing to delay start of other antidepressant or anxiety medication until after the end of the trial at Day 7 and agrees to keep any psychotherapy unchanged during the trial.
A potential patient who meets any of the following key exclusion criteria will be excluded from participation in this trial: • 1. Has, based on history, psychiatric assessment, and evaluation of the MINI, a current or prior diagnosis of bipolar disorder, a manic or hypomanic episode, a psychotic disorder, Major Depressive Disorder (MDD) or other mood disorder with psychotic features, obsessive compulsive disorder, post-traumatic stress disorder (PTSD), autism spectrum disorder, borderline personality disorder, schizophrenia, delusional disorder, paranoid personality disorder, schizoaffective disorder, clinically significant intellectual disability, or any other psychiatric comorbidity that renders the patient unsuitable for the trial according to the investigator's judgment. • 2. Has one or more first or second degree relatives with a current or previously diagnosed bipolar disorder, psychotic disorder or other mood disorder (including MDD) with psychotic features. • 3. Is in the judgement of a trial psychiatrist or registered psychologist, at significant risk for suicide based on history, psychiatric assessment, and evaluation of suicidal ideation and suicidal behaviour based on the Columbia-Suicide Severity Rating Scale (C-SSRS). • 4. Has taken anti-depressive medication within 14 days or 5 half-lives (whichever is longer) prior to dosing (exception: within the last 5 weeks in the case of fluoxetine). • 5.

[3] = Pharmacokinetics of 5-MeO-DMT and bufotenine after inhalation; assay type: in vivo, human; details: for Plasma concentration as % of Cmax: whole dose range tested (6 mg, 12 mg, 18 mg)
Protocol: This applies over the whole dose range tested (6 mg, 12 mg, 18 mg). […] Uptitration as disclosed herein will not lead to accumulation and thus not to higher plasma concentrations, for instance, 10 minutes, 2 hours, or 3 hours after administration.
Blood samples were obtained at 1; 2; 4; 7; 10; 15; 20; 30; 45 min and 1; 1.5; 2; 3; 4 hours after administration.
PK parameters were generated by algebraic analysis of the concentration versus time plots for each individual. The analysis was carried out using the software Phoenix WinNonlin 6.3.

[4] = oral; cited from earlier work
[5] = test system: patients with treatment resistant bipolar depression; details: single 0.5 mg·kg^−1 infusion; cited from earlier work
[6] = 12 mg n=4, 2 hours after dose, baseline 16

## COc1ccc2[nH]cc(CCN(C)C)c2c1 [5-MeO-DMT]
[1]; 12 mg n=4, 2 hours after dose, baseline 8
  MADRS Suicidal Thoughts improvement: 5 points
[1]; 12 mg n=4, 2 hours after dose, baseline 13
  MADRS Inner Tension improvement: 11
[1]; [6]
  MADRS Concentration Difficulties improvement: 9
  MADRS Inability to Feel improvement: 7 points
  MADRS Lassitude improvement: 6
  MADRS Pessimistic Thoughts improvement: 8
[1]; 12 mg n=4, 3 hours after dose, baseline 11
  BPRS Blunted Affect improvement: 3 points
[1]; 12 mg n=4, 3 hours after dose, baseline 13
  BPRS Emotional Withdrawal improvement: 2 points
[1]; 12 mg n=4, 3 hours after dose, baseline 14
  BPRS Tension improvement: 5
[1]; 12 mg n=4, 3 hours after dose, baseline 18
  BPRS Guilt Feelings improvement: 9
[1]; 12 mg n=4, 3 hours after dose, baseline 25
  BPRS Anxiety improvement: 14
[1]; 12 mg n=4, day 1, baseline 13
  MADRS Inner Tension improvement: 10
[1]; 12 mg n=4, day 1, baseline 14
  BPRS Tension improvement: 8
[1]; 12 mg n=4, day 1, baseline 16
  MADRS Concentration Difficulties improvement: 14
  MADRS Lassitude improvement: 16
  MADRS Pessimistic Thoughts improvement: 9
[1]; 12 mg n=4, day 1, baseline 18
  BPRS Guilt Feelings improvement: 13
[1]; 12 mg n=4, day 1, baseline 25
  BPRS Anxiety improvement: 19
[1]; 12 mg n=4, day 7, baseline 12
  MADRS Reduced Sleep percentage improvement: 50.00%
[1]; 12 mg n=4, day 7, baseline 13
  MADRS Inner Tension improvement: 8
[1]; 12 mg n=4, day 7, baseline 14
  BPRS Tension improvement: 8
[1]; 12 mg n=4, day 7, baseline 16
  MADRS Concentration Difficulties improvement: 13
  MADRS Lassitude improvement: 13
  MADRS Pessimistic Thoughts improvement: 8
[1]; 12 mg n=4, day 7, baseline 18
  BPRS Guilt Feelings improvement: 13
[1]; 12 mg n=4, day 7, baseline 25
  BPRS Anxiety improvement: 19
[1]; IDR n=8, 2 hours after last dose, baseline 11
  MADRS Suicidal Thoughts improvement: 8 points
[1]; IDR n=8, 2 hours after last dose, baseline 26
  MADRS Inner Tension improvement: 15
[1]; IDR n=8, 2 hours after last dose, baseline 27
  MADRS Lassitude improvement: 17
[1]; IDR n=8, 2 hours after last dose, baseline 28
  MADRS Pessimistic Thoughts improvement: 21
[1]; IDR n=8, 2 hours after last dose, baseline 30
  MADRS Concentration Difficulties improvement: 19
[1]; IDR n=8, 2 hours after last dose, baseline 36
  MADRS Inability to Feel improvement: 24 points
[1]; IDR n=8, 3 hours after last dose, baseline 13
  BPRS Emotional Withdrawal improvement: 5 points
[1]; IDR n=8, 3 hours after last dose, baseline 15
  BPRS Blunted Affect improvement: 4 points
[1]; IDR n=8, 3 hours after last dose, baseline 16
  BPRS Tension improvement: 5
[1]; IDR n=8, 3 hours after last dose, baseline 34
  BPRS Guilt Feelings improvement: 20
[1]; IDR n=8, 3 hours after last dose, baseline 37
  BPRS Anxiety improvement: 18
[1]; IDR n=8, day 1, baseline 16
  BPRS Tension improvement: 5
[1]; IDR n=8, day 1, baseline 25
  MADRS Reduced Sleep percentage improvement: 52.00%
[1]; IDR n=8, day 1, baseline 26
  MADRS Inner Tension improvement: 20
[1]; IDR n=8, day 1, baseline 27
  MADRS Lassitude improvement: 22
[1]; IDR n=8, day 1, baseline 28
  MADRS Pessimistic Thoughts improvement: 24
[1]; IDR n=8, day 1, baseline 30
  MADRS Concentration Difficulties improvement: 29
[1]; IDR n=8, day 1, baseline 34
  BPRS Guilt Feelings improvement: 23
[1]; IDR n=8, day 1, baseline 37
  BPRS Anxiety improvement: 21
[1]; IDR n=8, day 7, baseline 16
  BPRS Tension improvement: 6
[1]; IDR n=8, day 7, baseline 25
  MADRS Reduced Sleep percentage improvement: 64.00%
[1]; IDR n=8, day 7, baseline 26
  MADRS Inner Tension improvement: 14
[1]; IDR n=8, day 7, baseline 27
  MADRS Lassitude improvement: 24
[1]; IDR n=8, day 7, baseline 28
  MADRS Pessimistic Thoughts improvement: 25
[1]; IDR n=8, day 7, baseline 30
  MADRS Concentration Difficulties improvement: 21
[1]; IDR n=8, day 7, baseline 34
  BPRS Guilt Feelings improvement: 24
[1]; IDR n=8, day 7, baseline 37
  BPRS Anxiety improvement: 20
[1]; Part A
  SAEs: No SAEs
[1]; Part A, 12 mg n=4, day seven
  Patients with MADRS remission (total score <=10): 50%
[1]; Part A, 12 mg, day seven
  Mean MADRS change from baseline: −21.0
  Mean MADRS change from baseline, percent: −65%
[1]; Part A, 18 mg n=4, day seven
  Patients with MADRS remission (total score <=10): 25%
[1]; Part A, 18 mg, day seven
  Mean MADRS change from baseline, percent: −41%
[2]
  ECG (3 hours), safety laboratory analyses (7 days), CADSS (3 hours, 1 day, 7 days): unremarkable
  Reported adverse events (cramping left abdominal pain and headache, Day 0): mild, short-lasting and resolved spontaneously
  Tolerability of the inhalation procedure: well tolerated with no inhalation-related adverse events
[2]; 2 hr, baseline 29
  Total MADRS improvement: 24
  Total MADRS score: 5
[2]; Day 1, baseline 6
  BPRS Tension improvement: 5
[2]; Day 1, baseline 29
  Total MADRS improvement: 29
  Total MADRS score: 0
[2]; Day 7, Day 0 score 3
  BIMF item 16 (I worry about how other people judge me (as a mother)) score: 5
[2]; Day 7, Day 0 score 5
  BIMF item 11 (I take a little time each week to do something for myself) score: 6
[2]; Day 7, Day 0 score 5, maximum possible 12
  BIMF functional domain Adjustment score: 6
[2]; Day 7, Day 0 score 9, maximum possible 18
  BIMF functional domain Self-Care score: 13
[2]; Day 7, Day 0 score 12, maximum possible 12
  BIMF functional domain Infant Care score: 12
[2]; Day 7, Day 0 score 15, maximum possible 18
  BIMF functional domain Mother-Child Interaction score: 17
[2]; Day 7, Day 0 score 17, maximum possible 18
  BIMF functional domain Social Support score: 18
[2]; Day 7, Day 0 score 28, maximum possible 36
  BIMF functional domain Management score: 33
[2]; Day 7, Day 0 score 44, maximum possible 60
  BIMF functional domain Psychological Well-being score: 53
[2]; Day 7, baseline 29
  Total MADRS improvement: 28
  Total MADRS score: 1
[2]; Day 7, from 92 to 105 of possible 120
  BIMF total score improvement: 14%
[2]; Day 7 vs Day 0
  BIMF TOTAL Δ (Day 7): 13
  BIMF functional domain Adjustment % Improvement: 20.00%
  BIMF functional domain Infant Care % Improvement: 0.00%
  BIMF functional domain Management % Improvement: 18%
  BIMF functional domain Self-Care % Improvement: 44%
[2]; Discharge, baseline 6
  BPRS Tension improvement: 5
[2]; IDR 6 mg then 12 mg
  Standard criteria for MADRS response (at least 50% improvement) and MADRS remission (total score <=10): fulfilled
  Time to clinical remission after administration: ≤ 2 h
[2]; except temporary, clinically non-relevant increase in heart rate and blood pressure shortly after administration
  Changes in vital parameters: no other noteworthy changes in vital parameters
[3]; 10 minutes after inhalation
  Plasma concentration as % of Cmax: ≤ 10%
[3]; 2 hours after inhalation
  Plasma concentration as % of Cmax: ≤ 1%
[3]; 3 hours after inhalation, whole dose range tested
  Detectability in the plasma: no longer detectable
[3]; dosing schemes relying on uptitration
  Pharmacokinetic measurements under uptitration dosing schemes versus single doses: Substantially similar results

## CCN(CC)C(=O)[C@@H]1C=C2c3cccc4[nH]cc(c34)C[C@H]2N(C)C1 [LSD, lysergic acid diethylamide]
[4]
  Duration of acute psychedelic effects: several hours

## CN(C)CCc1c[nH]c2ccc(O)cc12 [bufotenine]
[3]; uptitration scheme
  Bufotenine concentrations when subjects receiving an uptitration scheme were included: Substantially similar observations

## CNC1(c2ccccc2Cl)CCCCC1=O (stereo not drawn) [ketamine]
[5]
  Duration of the anti-anhedonic effect: up to 14 days
  Time until decrease of anhedonia took effect: ≤ 40 min
